Test results published in patent publication US7943577B2, “Alpha-fetoprotein peptides and uses thereof” (Albany Medical College, priority 2001, dated 2011).
Entries after “also recorded” stand apart in the source; their conditions may differ. Square brackets hold non-standard residues; d marks the D form. Ends that are not written are not given here. Hyp = O=C(O)[C@@H]1C[C@@H](O)CN1

How the values were obtained:
[1] = test system: immature mouse uterus; assay: Immature mouse uterine growth assay; assay type: in vivo; conditions: for uterotrophic effect of agent alone: peptide even at a dose of 10 μg/mouse, FIG. 13a; for inhibition of the uterotrophic effect of estradiol: Pep 1 μg i.p. one hour before E2 0.5 μg i.p.; for inhibition of the uterotrophic effect of estradiol / inhibition of the uterotrophic effect of tamoxifen: FIG. 13b; for inhibition of the uterotrophic effect of tamoxifen: Pep 1 μg i.p. one hour before Tam 1.0 μg i.p.; for biological activity of gel filtration fraction of aged peptide: 1 μg i.p.
Description: Immature Mouse Uterine Growth Assay.
Differences between groups were evaluated, employing the non-parametric Wilcoxon Sum of Ranks test (one-sided).

[2] = test system: MCF-7 human breast cancer xenografts; assay: Human breast cancer xenograft assay, MCF-7; assay type: in vivo; conditions: for tumor volumes versus E2 alone group (Wilcoxon ranks-sum test): MCF-7, day 30 (FIG. 7: 20 days and 30 days) after tumor implantation, p<0.05; for growth (tumor volume) of MCF-7 xenografts in E2-supplemented SCID mice: peptide 1 μg i.p. twice a day, tamoxifen 50 μg i.p. once a day, 30-day observation
Description: Human Breast Cancer Xenograft Assay. A bioassay for anti-breast cancer activity was performed according to Bennett et al. (23;24). Confluent MCF-7 human breast cancer cells were trypsinized into suspension and pelleted by centrifugation at 200×g. The pellet was then solidified into a fibrin clot by exposing it to 10 μl of fibrinogen (50 mg/ml) and 10 μl of thrombin (50 units/ml). The solid mass of MCF-7 cells was then cut into pieces 1.5 mm in diameter. A tumor segment of ˜1.5 mm in diameter was implanted under the kidney capsule of an immunodeficient ICR-SCID male mouse (Taconic Farms) that weighed about 25 g. Estrogen supplementation was accomplished by s.c. implantation of a silastic tubing capsule containing solid E2 inserted on the day of tumor implantation. Peptide was injected i.p. every twelve hours at a dose of 1 μg per mouse. Tumor growth was monitored during survival laparotomy at 10 day intervals by measurement of the diameters of the short (d) and long axes (D) of each tumor, using a dissecting microscope equipped with an ocular micrometer. Tumor volumes were calculated using the formula (π/6) (d)^2D, assuming the tumor shape to be an ellipsoid of revolution around its long axis (D). There were five to seven replicate mice included in each treatment group. Mean tumor volume±standard error in each group was calculated for display of growth curves. Significance of differences between groups were tested using the one-sided Wilcoxon Sum of Ranks Test.

[3] = test system: MCF-7/Tam human breast cancer xenografts; assay: Human breast cancer xenograft assay, tamoxifen-resistant MCF-7 subline; assay type: in vivo; conditions: for growth (tumor volume) of tamoxifen-resistant MCF-7 subline xenografts in E2-supplemented SCID mice: peptide 1 μg i.p. twice a day, tamoxifen 50 μg i.p. once a day, 30-day observation
Description: (§1) Cell Lines. T47D and MDA-231 human breast cancer cell lines were purchased from the American Type Culture Collection (Manassas, Va.). Growth medium for T47D cells consisted of RPMI 1640 (Life Technologies, Germantown, Md.) supplemented with 10% fetal bovine serum (Life Technologies) and 8 μg/ml bovine insulin (Sigma, St. Louis, Mo.). […] The MCF-7 cell line was obtained from Dr. Alberto C. Baldi, Institute of Experimental Biology and Medicine, Buenos Aires, Argentina, and was maintained as previously described by Gierthy et al. (1991). […] Human Breast Cancer Xenograft Assay. A bioassay for anti-breast cancer activity was performed according to Bennett et al. (23;24). […] The pellet was then solidified into a fibrin clot by exposing it to 10 μl of fibrinogen (50 mg/ml) and 10 μl of thrombin (50 units/ml). The solid mass of MCF-7 cells was then cut into pieces 1.5 mm in diameter. A tumor segment of ˜1.5 mm in diameter was implanted under the kidney capsule of an immunodeficient ICR-SCID male mouse (Taconic Farms) that weighed about 25 g. […] Peptide was injected i.p. every twelve hours at a dose of 1 μg per mouse. Tumor growth was monitored during survival laparotomy at 10 day intervals by measurement of the diameters of the short (d) and long axes (D) of each tumor, using a dissecting microscope equipped with an ocular micrometer. […] There were five to seven replicate mice included in each treatment group. Mean tumor volume±standard error in each group was calculated for display of growth curves. Significance of differences between groups were tested using the one-sided Wilcoxon Sum of Ranks Test.

[4] = test system: T47D human breast cancer xenografts; assay: Human breast cancer xenograft assay, T47D; assay type: in vivo; conditions: for growth (tumor volume) of T47D xenografts in E2-supplemented SCID mice: peptide 1 μg i.p. twice a day, 30-day observation
Description: as §1

[5] = test system: MDA-MB-231 human breast cancer xenografts; assay: Human breast cancer xenograft assay, MDA-MB-231; assay type: in vivo; conditions: for growth (tumor volume) of ER− MDA-MB-231 xenografts: peptide 1 μg i.p. twice a day, tamoxifen 50 μg i.p. once a day, 30-day observation
Description: as §1

[6] = in vivo; cited from earlier work
[7] = test system: MCF-7 breast cancer cells; conditions: ERα-positive breast cancer (MCF-7) cells; Background of Example IV; cited from earlier work
[8] = test system: human breast cancer lines; conditions: DeFreest et al., J Pept Res 63:409-419, 2004; cited from earlier work
[9] = molecular target: T1, estrogen receptor (rabbit uterine cytosol) (Oryctolagus cuniculus, UniProt G1SML6); assay: Assessment of estrogen receptor antagonism ([3H]estradiol binding)
T1 sequence (G1SML6 1-598): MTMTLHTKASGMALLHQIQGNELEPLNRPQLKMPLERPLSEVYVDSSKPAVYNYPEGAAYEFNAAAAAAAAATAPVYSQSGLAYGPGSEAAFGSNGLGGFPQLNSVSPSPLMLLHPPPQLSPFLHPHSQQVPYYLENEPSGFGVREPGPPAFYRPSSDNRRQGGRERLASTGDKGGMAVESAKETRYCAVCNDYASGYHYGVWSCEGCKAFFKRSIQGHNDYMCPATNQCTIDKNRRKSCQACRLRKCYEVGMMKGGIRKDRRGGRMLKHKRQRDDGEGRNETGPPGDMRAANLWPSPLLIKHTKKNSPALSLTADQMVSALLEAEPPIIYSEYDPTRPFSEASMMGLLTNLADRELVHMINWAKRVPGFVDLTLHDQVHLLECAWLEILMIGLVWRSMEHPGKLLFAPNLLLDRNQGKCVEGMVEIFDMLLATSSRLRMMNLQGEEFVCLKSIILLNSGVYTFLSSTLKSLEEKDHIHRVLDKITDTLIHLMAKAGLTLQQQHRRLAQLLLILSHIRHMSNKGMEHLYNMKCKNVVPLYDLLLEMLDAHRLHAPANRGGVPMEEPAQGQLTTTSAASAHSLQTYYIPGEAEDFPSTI
Description: Assessment of Estrogen Receptor Antagonism. Commercially obtained rabbit uteri (Pel-Freez Biological, Rogers, A R) were used as a source of estrogen receptor. Uteri were pulverized in a stainless steel impact mortar under liquid nitrogen and homogenized (20% w/v) in assay buffer (10 mM Tris (pH 7.4), 1.5 mM EDTA, 10% glycerol, 10 mM monothioglycerol, and 10 mM sodium molybdate] on ice. Centrifugation (50,000×g) for 1 h yielded a supernatant containing cytosol, which was adjusted with assay buffer to 2.5 mg protein/ml. All incubations were carried out in triplicate, each containing 100 μl of cytosol, 20 μl of […] 6,7-[3H]estradiol (50 Ci/mmol; DuPont Pharmaceuticals Company, Wilmington, Del., U.S.A.), and 80 μl of putative antagonist in assay buffer. Total count tubes received 20 μl of [3H]estradiol and 180 μl of assay buffer. After incubation overnight at 4° C., all but the total count tubes received 300 μl of dextran-coated charcoal suspension; tubes were agitated for 15 min and then centrifuged (1,000×g) for 15 min. Supernatants were decanted into counting vials, scintillant was added, and protein-bound tritium was determined by liquid scintillation counting.

CC/C(=C(\c1ccccc1)c1ccc(OCCN(C)C)cc1)c1ccccc1 [tamoxifen]
uterotrophic effect of agent alone ([1]; i.p.): stimulate the growth of the immature mouse uterus | tumor volumes versus E2 alone group (Wilcoxon ranks-sum test) [2]: significantly different | growth (tumor volume) of MCF-7 xenografts in E2-supplemented SCID mice [2]: prevented growth; also recorded: no increase in tumor volume | growth (tumor volume) of tamoxifen-resistant MCF-7 subline xenografts in E2-supplemented SCID mice [3]: resistant to tamoxifen in vivo; also recorded: only minimally effective | growth (tumor volume) of T47D xenografts in E2-supplemented SCID mice [4]: prevented growth | growth (tumor volume) of ER− MDA-MB-231 xenografts [5]: Neither peptide nor tamoxifen were effective; also recorded: did not affect the growth | users with uterine cancer as side effect [6]: 0.2%

Cyclo[EMTOVNOGQ]
expression of estrogen receptor-α (ERα) [7]: downregulation of expression of estrogen receptor-α (ERα) | proliferation of human breast cancer lines in immunocompromised mice [8]: inhibit proliferation of human breast cancer lines

EMTOVNOG (EMT[Hyp]VN[Hyp]G; listed as Homo sapiens) [SEQ ID NO: 4]
inhibition of the uterotrophic effect of estradiol ([1]; listed as Pep): significantly different | inhibition of the uterotrophic effect of estradiol ([1]; listed as peptide): inhibited the uterotrophic effect of tamoxifen as well as that of estradiol | inhibition of the uterotrophic effect of tamoxifen [1]: significantly inhibited tamoxifen's uterotrophic effect | inhibition of the uterotrophic effect of tamoxifen ([1]; listed as Pep): significantly different | inhibition of the uterotrophic effect of tamoxifen ([1]; listed as peptide): inhibited the uterotrophic effect of tamoxifen | uterotrophic effect of agent alone ([1]; i.p.): no uterotrophic effect whatsoever | tumor volumes versus E2 alone group (Wilcoxon ranks-sum test) [2]: significantly different | growth (tumor volume) of MCF-7 xenografts in E2-supplemented SCID mice [2]: prevented growth; also recorded: no significant increase in tumor volume | tumor volumes versus E2 alone group (Wilcoxon Ranks Sum Test) ([3]; MCF-7 subline made resistant to tamoxifen, day 30, p<0.05): significantly different | growth (tumor volume) of tamoxifen-resistant MCF-7 subline xenografts in E2-supplemented SCID mice [3]: completely prevented the xenograft growth; also recorded: completely stopped the growth | tumor volumes versus E2 alone group (Wilcoxon Ranks Sum Test) ([4]; T47D, day 30, p<0.05): significantly different | growth (tumor volume) of T47D xenografts in E2-supplemented SCID mice [4]: completely prevented tumor growth | differences in tumor volumes between groups ([5]; MDA-MB-231, FIG. 11): no differences in tumor volumes | growth (tumor volume) of ER− MDA-MB-231 xenografts [5]: Neither peptide nor tamoxifen were effective; also recorded: had no effect on the growth | competition/interference with estrogen binding to the estrogen receptor ([9]; cell-free system): does not interfere with the binding of [^3H]estradiol to the estrogen receptor | interference with E2 binding to ER ([9]; peptide concentration range of 10^−10M to 10^−5M): no interference with E2 binding to ER

EMTPVNPG (listed as Homo sapiens) [SEQ ID NO: 6]
biological activity of stored inactive peptide after brief treatment with 4M urea [1]: regenerated by 4M urea

QMTPVNPG (listed as Homo sapiens) [SEQ ID NO: 2]
biological activity of stored inactive peptide after brief treatment with 4M urea [1]: restored its biological activity | % Inhibition of E2-Stimulated Growth of Immature Mouse Uterus ± SE ([1]; Stored over 1 year (lyophilized, −20° C.), 1 μg per mouse i.p.): 0 ± 2% | biological activity of gel filtration fraction of aged peptide ([1]; higher molecular weight fraction (FIG. 2b, left side of peak)): biologically inactive | optimal dose for inhibition of estrogen-stimulated growth of mouse uterus ([1]; i.p., FIG. 1a): 1 μg/mouse | biological activity of gel filtration fraction of aged peptide ([1]; lower molecular weight fraction (FIG. 2b, right side of peak)): active | anti-estrotrophic activity as a function of storage time (shelf-life) ([1]; stored at −20° C. in the lyophilized state, 1 μg per mouse, FIG. 1b): diminished to insignificant levels after five weeks of storage | biological activity of aged peptide ([1]; stored in the lyophilized state at −20° C. for over one year): completely biologically inactive
